Data taken from patent publication US12509437B2, “Substituted thiophene carboxamides and derivatives thereof as microbicides” (Bayer Aktiengesellschaft, priority 2019, dated 2025).

Assay: LogP by HPLC on reversed phase columns (EEC directive 79/831 Annex V.A8)
Format: physicochemical
Settings: method [a]
Method: [table] If more than one Log P value is available within the same method, all the values are given and separated by “+”. Calibration was done with straight-chain alkan2-ones (with 3 to 16 carbon atoms) with known Log P values (measurement of Log P values using retention times with linear interpolation between successive alkanones). Lambda-max-values were determined using UV-spectra from 200 nm to 400 nm and the peak values of the chromatographic signals.

Row | SMILES | LogP
1 | COC(=O)C1(NC(=O)c2sc(Br)c(Br)c2C)CCOC1 (centres unmarked) [I.004] | 2.84^[a]
2 | CCSC(=O)C(CC(C)C)NC(=O)c1sc(Br)c(Br)c1C (centres unmarked) [I.007] | 5.03^[a]
3 | CCSC(=O)C(NC(=O)c1sc(Br)c(Br)c1C)C(C)C (centres unmarked) [I.008] | 4.74^[a]
4 | Cc1c(C(=O)NCC(=O)Sc2ccccc2)sc(Br)c1Br [I.011] | 4.10^[a]
5 | COC(=O)CC1(NC(=O)c2sc(Br)c(Br)c2C)CC1 [I.012] | 3.07^[a]
6 | CCOC(=O)C1(CNC(=O)c2sc(Br)c(Br)c2C)CC1 [I.013] | 3.79^[a]
7 | CCOC(=O)C1(C2(NC(=O)c3sc(Br)c(Br)c3C)CC2)CC1 [I.017] | 4.37^[a]
8 | CCOC(=O)C(CC(F)(F)F)NC(=O)c1sc(Br)c(Br)c1C (centres unmarked) [I.018] | 3.99^[a]
9 | Cc1c(C(=O)NCC2(C(=O)O)CC2)sc(Br)c1Br [I.019] | 2.50^[a]
10 | Cc1c(C(=O)NC2(C3(C(=O)OC(C)C)CC3)CC2)sc(Br)c1Br [I.020] | 4.87^[a]
11 | Cc1c(C(=O)NCC(=O)NC2(C(=O)O)CC2)sc(Br)c1Br [I.025] | 1.95^[a]
12 | Cc1c(C(=O)NCC#N)sc(Br)c1Br [I.026] | 2.59^[a]
13 | Cc1c(C(=O)NC2(C#N)CC2)sc(Br)c1Br [I.027] | 2.80^[a]
14 | Cc1c(C(=O)NC(C#N)C(C)C)sc(Br)c1Br (centres unmarked) [I.028] | 3.64^[a]
15 | Cc1c(C(=O)NC(C#N)c2ccccc2)sc(Br)c1Br (centres unmarked) [I.029] | 3.85^[a]
16 | Cc1c(C(=O)NC(C#N)Cc2ccccc2)sc(Br)c1Br (centres unmarked) [I.030] | 4.01^[a]
17 | CCOC(=O)C(Cc1c[nH]c2ccccc12)NC(=O)c1sc(Br)c(Br)c1C (centres unmarked) [I.036] | 4.15^[a]
18 | CCOC(=O)CCNC(=O)c1sc(Cl)c(Cl)c1C [I.038] | 3.06^[a]
19 | CCSC(=O)C(CC(C)C)NC(=O)c1sc(Cl)c(Cl)c1C (centres unmarked) [I.041] | 5.00^[a]
20 | CCSC(=O)C(NC(=O)c1sc(Cl)c(Cl)c1C)C(C)C (centres unmarked) [I.042] | 4.69^[a]

Row | SMILES | LogP
21 | COC(=O)[C@H](CCC(N)=O)NC(=O)c1sc(Cl)c(Cl)c1C [I.046] | 2.06^[a]
22 | COC(=O)C1(NC(=S)c2sc(Cl)c(Cl)c2C)CC1 [I.050] | 3.68^[a]
23 | Cc1c(C(=O)NC(C(N)=O)C(C)C)sc(Br)c1Br (centres unmarked) [I.051] | 2.58^[a]
24 | COC(=O)[C@@H](CC(N)=O)NC(=O)c1sc(Br)c(Br)c1C [I.052] | 2.12^[a]
25 | COC(=O)[C@H](CC(N)=O)NC(=O)c1sc(Br)c(Br)c1C [I.053] | 2.12^[a]
26 | COC(=O)[C@@H](CC(N)=O)NC(=O)c1sc(Cl)c(Cl)c1C [I.054] | 2.05^[a]
27 | COC(=O)[C@H](CC(N)=O)NC(=O)c1sc(Cl)c(Cl)c1C [I.055] | 2.02^[a]
28 | CCOC(=O)CN(C)C(=O)c1sc(Cl)c(Cl)c1C [I.057] | 3.15^[a]
29 | CCOC(=O)C(C(C)C)N(C)C(=O)c1sc(Br)c(Br)c1C (centres unmarked) [I.058] | 4.51^[a]
30 | CCOC(=O)C(C(C)C)N(C)C(=O)c1sc(Cl)c(Cl)c1C (centres unmarked) [I.059] | 4.44^[a]
31 | CON(C)C(=O)C(NC(=O)c1sc(Br)c(Br)c1C)C(C)C (centres unmarked) [I.061] | 3.71^[a]
32 | Cc1c(C(=O)NCC(N)=O)sc(Cl)c1Cl [I.062] | 1.75^[a]
33 | Cc1c(C(=O)NC2(C(N)=O)CC2)sc(Cl)c1Cl [I.063] | 1.96^[a]
34 | Cc1c(C(=O)NC(CO)C(=O)O)sc(Cl)c1Cl (centres unmarked) [I.067] | 1.84^[a]
35 | Cc1c(C(=O)NC(CC(N)=O)C(=O)O)sc(Cl)c1Cl (centres unmarked) [I.068] | 1.73^[a]
36 | Cc1c(C(=O)NC(CCC(N)=O)C(=O)O)sc(Cl)c1Cl (centres unmarked) [I.069] | 1.70^[a]
37 | Cc1c(C(=O)NC(CO)C(=O)O)sc(Br)c1Br (centres unmarked) [I.071] | 1.92^[a]
38 | Cc1c(C(=O)NC(CCC(N)=O)C(=O)O)sc(Br)c1Br (centres unmarked) [I.072] | 1.77^[a]
39 | Cc1c(C(=O)NC(Cc2c[nH]c3ccccc23)C(=O)O)sc(Br)c1Br (centres unmarked) [I.073] | 3.07^[a]
40 | Cc1c(C(=O)NC(C(=O)NCC#N)C(C)C)sc(Br)c1Br (centres unmarked) [I.075] | 2.92^[a]

Row | SMILES | LogP
41 | COC(=O)CC1(NC(=O)c2sc(Cl)c(Cl)c2C)CC1 [I.082] | 2.98^[a]
42 | COC(=O)C(NC(=O)c1sc(Cl)c(Cl)c1C)C(=O)OC [I.084] | 3.01^[a]
43 | CCOC(=O)C(CC1CC1)NC(=O)c1sc(Cl)c(Cl)c1C (centres unmarked) [I.085] | 4.23^[a]
44 | COC(=O)C(NC(=O)c1sc(Cl)c(Cl)c1C)(C1CC1)C1CC1 [I.086] | 3.94^[a]
45 | CCOC(=O)C(NC(=O)c1sc(Cl)c(Cl)c1C)C(=O)OCC [I.087] | 3.81^[a]
46 | CCOC(=O)C1(NC(=O)c2sc(Cl)c(Cl)c2C)CN(C(=O)OC(C)(C)C)C1 [I.088] | 4.15^[a]
47 | CCOC(=O)C(NC(=O)c1sc(Br)c(Br)c1C)C1CC1 (centres unmarked) [I.089] | 3.84^[a]
48 | CCOC(=O)C1(NC(=O)c2sc(Br)c(Br)c2C)CN(C(=O)OC(C)(C)C)C1 [I.090] | 4.23^[a]
49 | COC(=O)C(NC(=O)c1sc(Br)c(Br)c1C)C(=O)OC [I.091] | 3.10^[a]
50 | CCOC(=O)C(CC1CC1)NC(=O)c1sc(Br)c(Br)c1C (centres unmarked) [I.092] | 4.30^[a]
51 | COC(=O)C(NC(=O)c1sc(Br)c(Br)c1C)(C1CC1)C1CC1 [I.093] | 4.01^[a]
52 | CCOC(=O)C(NC(=O)c1sc(Br)c(Br)c1C)C(=O)OCC [I.094] | 3.87^[a]
53 | Cc1c(C(=O)NC(C(=O)NC(C(=O)O)C2CC2)C2CC2)sc(Cl)c1Cl (centres unmarked) [I.096] | 2.67^[a]
54 | CCOC(=O)CN(OC)C(=O)c1sc(Br)c(Br)c1C [I.097] | 3.93^[a]
55 | CCOC(=O)CN(OC)C(=O)c1sc(Cl)c(Cl)c1C [I.098] | 3.87^[a]
56 | CCOC(=O)CNC(=S)c1sc(Cl)c(Cl)c1C [I.099] | 3.92^[a]
57 | CCOC(=O)C1(NC(=S)c2sc(Br)c(Br)c2C)CC1 [I.100] | 4.15^[a]
58 | Cc1c(C(=S)NC2(C(=O)O)CC2)sc(Br)c1Br [I.102] | 2.91^[a]
59 | COC(=O)[C@H](CCC(=O)O)NC(=O)c1sc(Cl)c(Cl)c1C [I.103] | 2.39^[a]
60 | COC(=O)[C@H](CCC(=O)O)NC(=O)c1sc(Br)c(Br)c1C [I.104] | 2.46^[a]

Same assay, conditions: method [a]: LC-UV, acidic range, 0.1% formic acid in water and acetonitrile as eluent

Row | SMILES | LogP
61 | Cc1c(C(=O)NC2C(=O)SC2(C)C)sc(Br)c1Br (centres unmarked) [I.001] | 3.99^[a]
62 | Cc1c(C(=O)NC2CCSC2=O)sc(Br)c1Br (centres unmarked) [I.002] | 3.04^[a]
63 | Cc1c(C(=O)N[C@H]2CCSC2=O)sc(Br)c1Br [I.010] | 3.04^[a]
64 | Cc1c(C(=O)NC2CCOC2=O)sc(Br)c1Br (centres unmarked) [I.021] | 2.41^[a]
65 | Cc1c(C(=O)NC2CCCNC2=O)sc(Br)c1Br (centres unmarked) [I.022] | 2.10^[a]
66 | Cc1c(C(=O)NC2CCSC2=O)sc(Cl)c1Cl (centres unmarked) [I.037] | 2.86^[a]
67 | COC(=O)[C@H](Cc1ccccc1)NC(=O)[C@H](CC(=O)O)NC(=O)c1sc(Cl)c(Cl)c1C [I.048] | 3.09^[a]
68 | Cc1c(C(=O)NC2CCNC2=O)sc(Br)c1Br (centres unmarked) [I.064] | 1.93^[a]
69 | Cc1c(C(=O)NC2CNC(=O)C2)sc(Br)c1Br (centres unmarked) [I.065] | 1.89^[a]
70 | Cc1c(C(=O)NC2CCNC(=O)C2)sc(Br)c1Br (centres unmarked) [I.066] | 1.93^[a]

Same assay, conditions: reversed phase HPLC columns; preparation examples; method not indicated; read-out: Log P

Row | SMILES | chromatographic logP
71 | Cc1c(C(=O)NC2(C(=O)O)CC2)sc(Cl)c1Cl [1-{[(4,5-dichloro-3-methyl-2-thienyl)carbonyl]amino}cyclopropanecarboxylic acid] | 2.17
